Test results as given in patent publication US20260325504A1, “Genetically Engineered Human Pituitary Corticotroph Tumor Organoids Exhibit Divergent Responses to Selective Glucocorticoid Receptor Modulators” (Corcept Therapeutics Incorporated, priority 2022, published 2026).
Entries after “also recorded” stand apart in the source; their conditions may differ. Like-named read-outs stand apart in the source and are kept apart here.

Legend:
iPSC^USP48MV organoids = assay: ACTH secretion ELISA, iPSCUSP48 organoids; format: cell-based, human; settings: text: iPSCUSP48MI; FIG. 7G: iPSCUSP48MV; 500 nM, 48 h
Protocol: (§1) Sonic Hedgehog (SHH) was withdrawn from the organoid growth media 16 hours prior to treatment. The experimental treatment groups included: vehicle (Veh), mifepristone (500 nM, Selleckchem S2606), GANT61 (5 μM, Stemcell Technologies 73692), ketoconazole (Keto, 10 μM, Selleckchem S1353), pasireotide (Pas, 100 nM, Target Mol TP2207-SB001), octreotide (Oct, 100 nM, Selleckchem P1017), mifepristone plus GANT61, mifepristone plus Keto, mifepristone plus Pas, relacorilant (500 nM, Corcept Therapeutics CORT125134), relacorilant plus Pas, relacorilant plus Oct, or dexamethasone (Dexa, 100 nM, SIGMA S4902). In the combination treatments, cultures were pretreated with the GANT61, Keto, Pas or Oct for 2 hours prior to treatment with mifepristone or Rela. PitNET tissue derived organoids hPITO36, hPITO37, hPITO38, hPITO39, and hPITO40 were treated with the following experimental conditions: Vehicle (1), pasireotide (2), relacorilant (3), relacorilant & pasireotide (4), mifepristone (5), mifepristone & pasireotide (6). The IC50 values used for each hPITO line for each drug were determined based on dose responses (FIG. 12). All organoid cultures were treated for 48 hours prior to analysis.
(§2) Organoid conditioned media was collected and ACTH secretion using an ELISA according to the manufacturer's protocol (Novus Biologicals Human ACTH ELISA Kit NBP2-66401). The optical density was measured at a wavelength of 450 nm, and ACTH concentration (pg/mL) was interpolated using a standard curve with a 4-parameter logistic regression analysis using GraphPad Prism (v9.3.1).

[1] = system: glucocorticoid receptor (GR); settings: cited from earlier work
PitNET organoids = assay: PitNET organoid proliferation, apoptosis and cell death (summary); format: cell-based, human; settings: for tumor cell apoptosis / cell death: PitNET organoids
Protocol: iPSCs were stained for pituitary specific hormones including luteinizing hormone (LH), follicle-stimulating hormone (FSH), growth hormone (GH), prolactin (PRL), ACTH, cytokeratin 8/18 (CAM5.2), pituitary transcription factor PIT-1 and neuroendocrine marker Synaptophysin (Table 5). Cultures were immunostained for proliferation marker EdU (Click-IT EdU Alexa Fluor 555 Imaging Kit, Thermo Fisher Scientific C10338). Antibody dilutions were determined based on manufacturer guidelines and antibody titration (Table 5). Staining was conducted according to previously published protocols. Briefly, organoids and iPSCs grown in 8-well glass bottom chamber slides were fixed using 3.7% formaldehyde, washed with DPBS, permeabilized with 0.5% Triton X-100 (SIGMA X-100, PBS-T, 20 min at room temperature), washed with 0.01% PBS-T, and blocked with 2% donkey serum (Jackson Immuno Research 017-000-121) for 1 hour at room temperature. After blocking, primary antibodies were added and incubated overnight at 4° C. […] Fluorescence intensity was quantified as the percentage of marker-positive cells versus total cells, using Nikon Elements Software (Version 5.21.05). Proliferation for each iPSC line was quantified as the percentage of EdU-positive cells versus total cells.
Nuclear Morphometric Analysis (NMA) using treated organoids was performed based on a published protocol that measures cell viability based on the changes in nuclear morphology of the cells using nuclear stain Hoechst or DAPI [31]. Images of organoid nuclei were analyzed using the ImageJ Nuclear Irregularity Index (NII) plugin for key parameters that included cell area, radius ratio, area box, aspect, and roundness. Using the published spreadsheet template, the NII of each cell was calculated with the following formula: NII=Aspect−Area Box+Radius Ratio+Roundness. […] The percentage of cells in each NII classification category were calculated and plotted as a histogram using GraphPad Prism. […]

iPSC^ctrl organoids = assay: ACTH secretion ELISA, iPSCctrl organoids; format: cell-based, human; settings: 500 nM, 48 h, FIG. 6G
Protocol: as §1, §2

androgen receptor = settings: cited from earlier work
[2] = system: pancreatic cancer cell lines; settings: in vitro; cited from earlier work
[3] = system: ovarian cancer cell lines; settings: in vitro; cited from earlier work
estrogen receptor = settings: cited from earlier work

SMILES	magnitude of ACTH secretion, mifepristone vs relacorilant (iPSC^USP48MV organoids)	binding to the glucocorticoid receptor [1]	binding to the glucocorticoid receptor ([1]; listed as Mifepristone)	PitNET organoid proliferation (PitNET organoids; compared to relacorilant)	magnitude of ACTH secretion, mifepristone vs relacorilant (iPSC^ctrl organoids)	binding to the androgen receptor (androgen receptor)	apoptosis [2]	apoptosis [3]	tumor cell apoptosis / cell death (PitNET organoids)	tumor cell apoptosis / cell death (PitNET organoids; listed as Relacorilant)	binding to the estrogen receptor (estrogen receptor)
CC#C[C@]1(O)CC[C@H]2[C@@H]3CCC4=CC(=O)CCC4=C3[C@@H](c3ccc(N(C)C)cc3)C[C@@]21C [mifepristone, 11β-(4-dimethylaminophenyl)-17ß-hydroxy-17α-(1-propynyl)-estra-4,9-dien-3-one]	significantly greater than the effect of relacorilant	competes with cortisol binding at the GR	typically with high affinity	preferentially induced the expression of SSTR2, ACTH secretion and PitNET organoid proliferation	significantly greater than the effect of relacorilant						
Cn1cc(S(=O)(=O)N2CCC3=Cc4c(cnn4-c4ccc(F)cc4)C[C@]3(C(=O)c3cc(C(F)(F)F)ccn3)C2)cn1 [relacorilant, (R)-(1-(4-fluorophenyl)-6-((1-methyl-1H-pyrazol-4-yl)sulfonyl)-4,4a,5,6,7,8-hexahydro-1H-pyrazolo[3,4-g]isoquinolin-4a-yl) (4-(trifluoromethyl)pyridin-2-yl) methanone]						no detectable binding	induces apoptosis	induces apoptosis	induced SSTR5 expression and PitNET organoid apoptosis; also recorded: induced PitNET cell death	induces SSTR5 and tumor cell apoptosis	no detectable binding
